Among the data in ChEMBL document CHEMBL1938231 (J Med Chem, 2011) are IC50 and fraction unbound values, retold here.

Data set [1] addresses T1, Tyrosine-protein kinase JAK1 (Homo sapiens, UniProt P23458). It counts as cell-based, Sf9.
The target in data set [2] is T2, Tyrosine-protein kinase JAK3 (Homo sapiens, UniProt P52333).
T2 sequence (P52333 whole entry): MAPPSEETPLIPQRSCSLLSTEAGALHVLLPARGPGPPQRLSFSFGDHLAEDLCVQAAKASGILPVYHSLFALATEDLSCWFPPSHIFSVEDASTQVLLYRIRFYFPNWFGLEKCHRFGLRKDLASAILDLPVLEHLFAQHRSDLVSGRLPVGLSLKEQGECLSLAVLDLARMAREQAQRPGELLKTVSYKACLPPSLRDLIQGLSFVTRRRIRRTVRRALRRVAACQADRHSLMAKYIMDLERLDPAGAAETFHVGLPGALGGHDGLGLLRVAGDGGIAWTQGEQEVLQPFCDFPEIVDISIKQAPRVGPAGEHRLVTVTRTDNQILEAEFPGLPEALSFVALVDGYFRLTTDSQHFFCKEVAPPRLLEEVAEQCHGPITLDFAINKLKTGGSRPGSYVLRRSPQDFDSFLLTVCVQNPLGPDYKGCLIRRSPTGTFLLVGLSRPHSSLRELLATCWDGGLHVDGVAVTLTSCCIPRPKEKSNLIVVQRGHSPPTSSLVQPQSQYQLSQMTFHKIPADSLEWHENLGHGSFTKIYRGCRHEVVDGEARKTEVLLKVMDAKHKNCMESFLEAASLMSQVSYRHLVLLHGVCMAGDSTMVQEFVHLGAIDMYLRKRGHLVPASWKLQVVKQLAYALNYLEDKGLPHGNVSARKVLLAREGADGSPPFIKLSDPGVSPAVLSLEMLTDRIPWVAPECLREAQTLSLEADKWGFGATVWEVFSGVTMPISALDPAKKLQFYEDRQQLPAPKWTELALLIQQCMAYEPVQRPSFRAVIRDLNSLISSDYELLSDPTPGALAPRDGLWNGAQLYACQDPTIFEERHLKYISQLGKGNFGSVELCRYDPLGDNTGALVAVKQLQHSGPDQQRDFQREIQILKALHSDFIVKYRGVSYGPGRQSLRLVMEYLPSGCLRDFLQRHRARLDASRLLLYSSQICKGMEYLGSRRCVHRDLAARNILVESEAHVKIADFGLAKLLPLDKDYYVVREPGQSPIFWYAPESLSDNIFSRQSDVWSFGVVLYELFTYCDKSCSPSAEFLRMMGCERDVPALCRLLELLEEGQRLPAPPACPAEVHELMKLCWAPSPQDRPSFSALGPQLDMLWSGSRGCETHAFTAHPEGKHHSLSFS
The class given is cell-based, Sf9.

Data set [3] deals with T3, Non-receptor tyrosine-protein kinase TYK2 (Homo sapiens, UniProt P29597). The class given is cell-based, Sf9.
T3 sequence (P29597 whole entry): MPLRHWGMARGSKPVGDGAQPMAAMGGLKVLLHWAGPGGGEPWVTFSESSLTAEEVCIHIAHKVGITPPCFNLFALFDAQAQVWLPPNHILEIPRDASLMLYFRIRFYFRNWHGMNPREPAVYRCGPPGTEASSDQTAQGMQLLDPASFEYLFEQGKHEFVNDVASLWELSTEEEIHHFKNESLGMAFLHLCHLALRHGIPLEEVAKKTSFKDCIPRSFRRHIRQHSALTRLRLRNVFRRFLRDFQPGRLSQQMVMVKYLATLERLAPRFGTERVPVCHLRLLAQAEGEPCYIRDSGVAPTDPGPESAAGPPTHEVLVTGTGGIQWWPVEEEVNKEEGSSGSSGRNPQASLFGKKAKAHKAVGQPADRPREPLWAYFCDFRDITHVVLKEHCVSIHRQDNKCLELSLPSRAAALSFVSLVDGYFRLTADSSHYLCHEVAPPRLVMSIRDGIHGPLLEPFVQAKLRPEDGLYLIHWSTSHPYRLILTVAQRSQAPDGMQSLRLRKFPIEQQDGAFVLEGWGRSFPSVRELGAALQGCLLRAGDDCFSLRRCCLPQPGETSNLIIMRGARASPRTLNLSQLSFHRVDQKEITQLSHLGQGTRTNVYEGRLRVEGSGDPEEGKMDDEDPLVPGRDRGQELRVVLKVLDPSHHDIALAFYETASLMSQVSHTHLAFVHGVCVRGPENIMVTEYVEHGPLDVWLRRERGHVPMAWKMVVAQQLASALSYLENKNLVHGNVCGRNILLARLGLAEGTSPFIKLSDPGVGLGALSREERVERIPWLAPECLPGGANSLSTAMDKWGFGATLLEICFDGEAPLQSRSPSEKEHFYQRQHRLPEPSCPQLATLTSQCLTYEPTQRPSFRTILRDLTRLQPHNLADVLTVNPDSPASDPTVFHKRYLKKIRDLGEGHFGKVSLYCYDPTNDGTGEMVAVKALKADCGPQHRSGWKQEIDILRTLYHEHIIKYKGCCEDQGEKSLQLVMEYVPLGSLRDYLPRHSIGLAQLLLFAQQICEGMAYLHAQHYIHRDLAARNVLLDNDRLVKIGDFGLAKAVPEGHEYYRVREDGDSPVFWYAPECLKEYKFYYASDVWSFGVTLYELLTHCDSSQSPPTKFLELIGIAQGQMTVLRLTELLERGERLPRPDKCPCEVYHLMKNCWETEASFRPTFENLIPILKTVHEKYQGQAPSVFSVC
Data set [4] has as its target T1, Tyrosine-protein kinase JAK1. It counts as cell-based, BaF3.
Data set [5] deals with T2, Tyrosine-protein kinase JAK3. It counts as cell-based, BaF3.
Data set [6] deals with T3, Non-receptor tyrosine-protein kinase TYK2. The class given is cell-based, BaF3.
Data set [7] concerns the target T4, JAK3/JAK1 (Homo sapiens, UniProt P23458+P52333). The class given is cell-based.
Data set [8] deals with T4, JAK3/JAK1. The class given is cell-based, Blood.
A short description of the next data set: in vitro. Particulars: human, plasma.

SMILES strings stand for the structures.

T4 sequence (P23458 whole entry, one chain of several): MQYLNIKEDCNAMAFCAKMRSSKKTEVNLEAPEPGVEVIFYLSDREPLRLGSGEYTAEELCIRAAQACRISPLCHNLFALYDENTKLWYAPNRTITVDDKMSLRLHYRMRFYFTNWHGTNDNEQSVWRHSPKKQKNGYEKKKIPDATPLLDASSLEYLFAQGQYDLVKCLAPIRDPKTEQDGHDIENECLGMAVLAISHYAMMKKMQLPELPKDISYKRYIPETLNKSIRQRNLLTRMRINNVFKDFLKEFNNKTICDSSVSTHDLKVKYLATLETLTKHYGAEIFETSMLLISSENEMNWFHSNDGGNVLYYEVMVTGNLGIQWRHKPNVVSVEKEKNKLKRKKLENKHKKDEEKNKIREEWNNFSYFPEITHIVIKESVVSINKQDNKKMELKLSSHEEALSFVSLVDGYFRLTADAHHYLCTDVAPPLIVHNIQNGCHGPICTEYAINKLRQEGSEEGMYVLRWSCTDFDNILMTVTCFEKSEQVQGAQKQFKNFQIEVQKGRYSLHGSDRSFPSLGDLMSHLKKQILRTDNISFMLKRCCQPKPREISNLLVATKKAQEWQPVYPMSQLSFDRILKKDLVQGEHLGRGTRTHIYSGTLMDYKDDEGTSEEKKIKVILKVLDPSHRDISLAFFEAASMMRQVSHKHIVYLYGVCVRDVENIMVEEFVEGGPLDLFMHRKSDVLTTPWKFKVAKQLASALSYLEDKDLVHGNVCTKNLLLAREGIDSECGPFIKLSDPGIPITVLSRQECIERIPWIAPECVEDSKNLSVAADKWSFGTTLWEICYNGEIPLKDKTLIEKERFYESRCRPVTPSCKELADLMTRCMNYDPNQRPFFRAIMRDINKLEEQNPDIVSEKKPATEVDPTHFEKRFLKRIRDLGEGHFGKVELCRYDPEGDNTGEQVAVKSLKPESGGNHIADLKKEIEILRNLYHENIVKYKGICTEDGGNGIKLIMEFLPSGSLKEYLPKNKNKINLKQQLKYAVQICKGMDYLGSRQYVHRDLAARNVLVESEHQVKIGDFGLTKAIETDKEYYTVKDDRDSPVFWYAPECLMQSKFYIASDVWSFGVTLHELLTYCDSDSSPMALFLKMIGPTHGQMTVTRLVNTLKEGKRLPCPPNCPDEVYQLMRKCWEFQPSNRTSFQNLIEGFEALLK
T1 sequence (P23458 whole entry): as the sequence (P23458 whole entry, one chain of several) above
Description for in vitro: Fraction unbound in human plasma by equilibrium dialysis

The IC50 is the concentration needed to halve the response being measured. Low values mean higher potency, high ones lower potency. Take `NC(=O)c1cnc(N)c2cc(-c3ccc(N4CCOCC4)cc3)sc12`: the IC50 in data set [1] was 39 nM; in [2], 18 nM; in data set [3], 66 nM; in data set [4] it was 748 nM; in data set [5], greater than 25000 nM; in [6], greater than 25000 nM. Also, the IC50 on JAK3/JAK1 [7] is 548 nM; at JAK3/JAK1 [8], greater than 25000 nM.
With `CNC(=O)c1cnc(N)c2cc(-c3ccc(N4CCOCC4)cc3)sc12`, the IC50 was 211 nM in data set [1]; 1340 nM in [2]; 1330 nM in [3]; 1810 nM in data set [4]; greater than 25000 nM in data set [5]; greater than 25000 nM in [6].
On to `CCNC(=O)c1cnc(N)c2cc(-c3ccc(N4CCOCC4)cc3)sc12`, for which the IC50 in data set [1] came to 133 nM; in data set [2], 967 nM; in [3], 1070 nM.
For `Nc1ncc(C(=O)Nc2ccccc2)c2sc(-c3ccc(N4CCOCC4)cc3)cc12`, in that order: 406 nM, 2870 nM and 1990 nM.
In the same order, the values of `Nc1ncc(C(=O)NCc2ccccc2)c2sc(-c3ccc(N4CCOCC4)cc3)cc12` are 307 nM, greater than 125000 nM and 2600 nM.
On to `CC(C)(C)NC(=O)c1cnc(N)c2cc(-c3ccc(N4CCOCC4)cc3)sc12`, for which the IC50 in [1] was 8820 nM; in [2], 10300 nM; in [3], 6980 nM.
For `CN(C)C(=O)c1cnc(N)c2cc(-c3ccc(N4CCOCC4)cc3)sc12`, in that order: 3100 nM, 1660 nM and 5150 nM.
Take `CNC(=O)c1cnc(N)c2cc(-c3ccccc3)sc12`: the IC50 in data set [1] was 290 nM; in [2], 767 nM; in data set [3], 937 nM; in data set [5], greater than 25000 nM; in data set [6], greater than 25000 nM.
On to `CNC(=O)c1cnc(N)c2cc(-c3ccc(C)cc3)sc12`, for which the IC50 was 377 nM in data set [1]; 545 nM in data set [2]; 888 nM in data set [3]; greater than 25000 nM in [4]; greater than 25000 nM in data set [5]; greater than 25000 nM in [6].
In the case of `CNC(=O)c1cnc(N)c2cc(-c3ccc(C(C)(C)C)cc3)sc12`, the IC50 in [1] is 39 nM; in data set [2], 188 nM; in data set [3], 202 nM; in [5], greater than 25000 nM; in data set [6], greater than 25000 nM.
Consider `CNC(=O)c1cnc(N)c2cc(-c3ccc(OC(F)(F)F)cc3)sc12`, for which the IC50 in data set [1] is 70 nM; in data set [2], 365 nM; in data set [3], 208 nM; in data set [4], 6850 nM; in data set [5], greater than 25000 nM; in data set [6] it was greater than 25000 nM.
Take `CNC(=O)c1cnc(N)c2cc(-c3ccc(C(C)(C)C#N)cc3)sc12`: the IC50 in [1] was 36 nM; in data set [2], 118 nM; in data set [3], 146 nM; in data set [4] it was 1160 nM; in [5], greater than 25000 nM; in data set [6], greater than 25000 nM.
Usually fraction unbound stands for free concentration divided by total concentration. A low value points to little free substance. As to `CNC(=O)c1cnc(N)c2cc(-c3ccc(S(=O)(=O)NC(C)(C)C)cc3)sc12`, the IC50 in data set [1] was 30 nM; in data set [2] it was 307 nM; in [3], 266 nM; in data set [4] it was 1090 nM; in data set [5] it was greater than 25000 nM; in data set [6] it was greater than 25000 nM. Further, the values for the half-maximal inhibitory concentration (IC50) against JAK3/JAK1 [7] and against JAK3/JAK1 [8] were 625 nM and greater than 25000 nM, respectively. The molecule further came in with a fraction unbound in the data set “in vitro” of 0.012.
On to `CC(C)(C)NS(=O)(=O)c1ccc(-c2cc3c(N)ncc(C(=O)NCCO)c3s2)cc1`, for which the IC50 is 78 nM in data set [1]; 434 nM in data set [2]; 932 nM in data set [3]; greater than 25000 nM in data set [5]; greater than 25000 nM in [6].
As for `COCCNC(=O)c1cnc(N)c2cc(-c3ccc(S(=O)(=O)NC(C)(C)C)cc3)sc12`, the IC50 in data set [1] is 129 nM; in [2], 1280 nM; in data set [3], 1480 nM; in [4], 6610 nM; in data set [5], greater than 25000 nM; in [6], greater than 25000 nM. Further, the IC50 against JAK3/JAK1 [7] is 4450 nM; against JAK3/JAK1 [8] it was greater than 25000 nM. Besides, the free fraction (fraction unbound) in “in vitro” was determined as 0.023.
In the case of `CN(C)CCNC(=O)c1cnc(N)c2cc(-c3ccc(S(=O)(=O)NC(C)(C)C)cc3)sc12`, the IC50 in data set [1] was 708 nM; in [2] it was 3330 nM; in [3], 4100 nM; in [4] it was greater than 25000 nM; in [5], greater than 25000 nM; in data set [6], greater than 25000 nM. Besides, the IC50 at JAK3/JAK1 [7] and against JAK3/JAK1 [8] was greater than 25000 nM each time. The same molecule registered a fraction unbound in the data set “in vitro” of 0.064.
With `CC(C)(C)NS(=O)(=O)c1ccc(-c2cc3c(N)ncc(C(=O)NCCN4CCCCC4)c3s2)cc1`, the IC50 in data set [1] is 654 nM; in data set [2], 2380 nM; in [3], 2670 nM; in [4], greater than 25000 nM; in data set [5], greater than 25000 nM; in [6], greater than 25000 nM.
Take `CC(C)(C)NS(=O)(=O)c1ccc(-c2cc3c(N)ncc(C(=O)NCCN4CCOCC4)c3s2)cc1`: the IC50 is 177 nM in data set [1]; 963 nM in data set [2]; 757 nM in [3]; greater than 25000 nM in data set [5]; greater than 25000 nM in data set [6]; 7300 nM on JAK3/JAK1 [7]. On JAK3/JAK1 [8], this molecule registered an IC50 greater than 25000 nM. The fraction unbound in the data set “in vitro” was found to be 0.101.
On to `CC(C)(C)NS(=O)(=O)c1ccc(-c2cc3c(N)ncc(C(=O)NCCCN4CCOCC4)c3s2)cc1`, for which the IC50 in [1] is 206 nM; in [2] it was 645 nM; in data set [3], 1550 nM; in [4], 12600 nM; in [5], greater than 25000 nM; in data set [6] it was greater than 25000 nM.
